Laboratory results as given in patent US12202790B2, “Sulfonamide derivatives having selective Nox inhibiting activity” (GLUCOX BIOTECH AB, priority 2018, dated 2025).
Converted amounts (≈) assume the structure as drawn. Where two headings read alike, the source gives them in different places.

Tests used:
[1] = Determination of solubility; type: physicochemical; settings: 10 mM potassium phosphate buffer, aqueous buffer, kinetic from dmso stock; 10 mM potassium phosphate pH 7.4, 24 h, room temperature; read-out: Kinetic solub.
Procedure: Two μl of test compound (from 10 mM DMSO stock) were diluted 100× in 10 mM potassium phosphate pH 7.4 in a HPLC glass vial, sealed and incubated for 24 h under rotation (900 rpm) at room temperature. After the incubation 150 μl were transferred to conical glass inserts and centrifuged for 20 min at 10,000×g. Two μl of the supernatant were transferred to a 96-well plate, diluted 100× with acetonitrile/H2O (60/40, vol/vol) and analyzed by LC-MS/MS.

[2] = Microsomal metabolic stability, human; type: in vitro ADME; settings: pooled liver microsomes, pH 7.4, read-out: Metab. stab, human t1/2
Procedure: (§1) The microsomal metabolic stability assay utilizes pooled human, or animal (mouse) species, liver microsomes with supplemented cofactor (NADPH) to primarily facilitate cytochrome P450 (CYP) reactivity against target compound. Test compound (1 μM incubation concentration) and microsomes (0.5 mg/ml incubation concentration) were diluted in 0.1 M phosphate buffer, pH 7.4, in a volume of 150 μl. The reaction was initiated with addition of NADPH (1 mM). The incubation times were 0, 5, 15, 40 min and the reaction was quenched, at each time point, by addition of 100 μl acetonitrile containing Warfarin as IS. The plate was then sealed, centrifuged and frozen at −20 C until LC-MS/MS analysis.

hNox4 = hNox4 (Homo sapiens (Human), UniProt Q9NPH5); assay: Amplex Red assay of intact Nox4 expressing HEK293 cells; type: cell-based
Procedure: (§2) HEK293 overexpressing Nox4 (CJ Nox4) cells were purchased from Redoxis, Lund, Sweden. HEK 293 cells expressing Nox5, Nox3 (HEK TRex) and CHO cells expressing Nox1, were a kind gift from Vincent Jaque Center Medical Universitaire, Geneva, Switzerland. Nox2 expressed in isolated neutrophils were isolated from whole blood (human), as previously described (Anvari E, et al., Free Radic Res 2015; 49:1308-1318).
HEK293 cells (CJ Nox4) were cultured in RPMI 1640 with Glutamax supplemented with FBS (10%), penicillin (100 U/ml) and streptomycin […] at 37° C. in air with 5% CO2. Every third passage 200 µg/ml neomycin were supplied in growth medium as selective agent.
(§3) Reactive oxygen produced in whole cells or in membrane preparation of Nox1, Nox3, Nox4, Nox5 and xanthine oxidase and glucose oxidase were determined using Amplex Red as detection probe of formed H2O2. Amplex Red (10-acetyl-3,7-dihydroxyphenoxazine) in combination with HRP and co-factors reacts with H2O2 in a 1:1 stoichiometry to form a highly fluorescent resorufin excitated at 544 nm producing emission at 590 nm.
Adherent cells (CHO, HEK) were collected by trypsinization, centrifuged, washed with HBSS, counted, and resuspended in HBSS. Cells were seeded in 96-well black flat bottom plates at a density of 50,000-100,000 cells/well. All compounds were dissolved in DMSO and concentrations ranging from 0.003 to 200 μM were tested in Nox cellular assays with a final concentration of DMSO of 1%. Cells were incubated at 37° C. with the compounds for 30 minutes before measurement. Cells expressing Nox1 and Nox2 were activated with the PKC activator PMA (0.1 μM). Nox5 was activated with the Ca2+ ionophore ionomycin (1 μM) and further enforced with PMA. The CJ HEK 293 cells overexpressed Nox4 constitutively. In the HTS screen HEK 293 TRex was used and tetracycline ([…]) was added 18 h before measurement to induce Nox4 expression. Production of hydrogen peroxide by Nox in intact cells was measured using Amplex Red fluorescence as described by Jaquet V, et al., Br J Pharmacol 2011; 164:507-520. Assay reagents including HRP ([…]) and Amplex Red (50 μM) were added to initiate production of hydrogen peroxide. Fluorescence was read in a fluorescence plate reader at 37° C. every minute between 30-60 minutes.

[3] = Microsomal metabolic stability, mouse; type: in vitro ADME; settings: pooled liver microsomes, pH 7.4, read-out: Metab. stab, mouse t1/2
Procedure: as §1

xanthine oxidase = xanthine oxidase (Bos taurus (Bovine), UniProt P80457); assay: Amplex Red xanthine oxidase (XO) assay; type: biochemical; design: key: The sign “—” stands for “inactive”
Procedure: as §3
The assay was designed for Amplex Red analysis of production of hydrogen peroxide. Test compounds were incubated with 5 mU/ml bovine derived xanthine oxidase for 15 min at room temperature followed by the addition of substrate and detection mix (final concentrations of 0.2 U/ml HRP, 5 μM hypoxanthine, and 50 μM Amplex Red). As described by Hirano K et al., Antioxid Redox Signal 2015 10; 23:358-374, production of hydrogen peroxide was followed by fluorescence detection during 30 min at 37° C. in a plate reader that use excitation at 544 nm producing emission at 590 nm.

[4] = Plasma protein binding, human; type: in vitro ADME; settings: 10 μM in plasma, equilibrium dialysis 4 h, read-out: fu % human plasma protein
Procedure: Example compounds were incubated at 10 μM in plasma and then equilibrium dialysed for 4 h, using a rapid equilibrium device. Protein binding (fu %) was determined by LS/MS as previously described (Anvari E, et al., vide supra).

Nox2 = Nox2 (Homo sapiens (Human), UniProt P04839); assay: Nox2 inhibition in human neutrophils, isoluminol-dependent chemiluminescence; type: cell-based; design: key to IC50 Nox2: The sign “—” stands for “inactive”; settings: PMA stimulated human neutrophils
Procedure: as §2
Compounds of the invention were tested for selectivity against Nox2 in isolated neutrophils from whole blood (human), as previously described (Anvari E, et al., vide supra). Levels of ROS from PMA stimulated primary human neutrophils were measured using isoluminol-dependent chemiluminescence. […] The dye is excited by ROS and the light emitted when the excited molecules return to the ground state, relative to the amount of released ROS, is measured. This reaction is catalyzed and amplified by peroxidases. […] Compounds of the invention and GKT136901 were diluted at 4× working concentration and titrated from 100 μM to 0.006 μM in 1:4 steps as final concentrations. DPI was diluted in isoluminol buffer at 4× working concentration titrated from 10 μM to 0.0006 μM as final concentrations. PMA was diluted in isoluminol buffer at 4× working concentration for a final concentration of 30 ng/ml. […] Luminescence was detected using FluoStar Optima (BMG, Labtech). The isoluminol buffer was prepared immediately prior to addition to test plate. The buffer contained HRP fraction with or without PMA (30 ng/ml). Stock solutions at 6 μg/ml (PMA in HBSS), 3 μg/ml (PMA in DMSO) and 24 mM (DPI) were used and further diluted at the day of analysis to 4× working concentrations in HBSS with or without DMSO.

[5] = read-out: IC50 on hNox4 in recombinant cells

Sequence of hNox4 (Q9NPH5 whole entry): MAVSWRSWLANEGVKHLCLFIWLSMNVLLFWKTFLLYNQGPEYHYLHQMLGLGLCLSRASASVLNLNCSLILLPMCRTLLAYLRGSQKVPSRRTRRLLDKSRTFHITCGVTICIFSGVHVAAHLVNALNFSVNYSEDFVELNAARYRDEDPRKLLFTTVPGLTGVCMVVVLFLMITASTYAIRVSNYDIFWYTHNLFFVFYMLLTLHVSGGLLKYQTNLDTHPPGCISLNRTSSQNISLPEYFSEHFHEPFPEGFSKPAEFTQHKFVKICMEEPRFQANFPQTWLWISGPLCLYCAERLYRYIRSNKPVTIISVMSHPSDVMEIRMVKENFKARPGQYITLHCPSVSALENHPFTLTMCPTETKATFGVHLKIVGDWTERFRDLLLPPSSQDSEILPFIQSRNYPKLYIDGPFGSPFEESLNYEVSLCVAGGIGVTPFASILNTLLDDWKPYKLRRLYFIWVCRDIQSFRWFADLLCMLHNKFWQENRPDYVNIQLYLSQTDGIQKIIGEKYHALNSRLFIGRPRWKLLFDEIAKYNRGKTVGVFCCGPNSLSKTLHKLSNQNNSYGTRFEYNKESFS
Sequence of hNox4 (P13498 2-195 partner): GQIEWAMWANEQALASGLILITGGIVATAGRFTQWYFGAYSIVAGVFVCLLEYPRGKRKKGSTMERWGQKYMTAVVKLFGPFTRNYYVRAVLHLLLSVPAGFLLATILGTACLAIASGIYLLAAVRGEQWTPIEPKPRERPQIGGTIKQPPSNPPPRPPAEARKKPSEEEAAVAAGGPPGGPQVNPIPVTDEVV
Sequence of Nox2 (P04839 2-570): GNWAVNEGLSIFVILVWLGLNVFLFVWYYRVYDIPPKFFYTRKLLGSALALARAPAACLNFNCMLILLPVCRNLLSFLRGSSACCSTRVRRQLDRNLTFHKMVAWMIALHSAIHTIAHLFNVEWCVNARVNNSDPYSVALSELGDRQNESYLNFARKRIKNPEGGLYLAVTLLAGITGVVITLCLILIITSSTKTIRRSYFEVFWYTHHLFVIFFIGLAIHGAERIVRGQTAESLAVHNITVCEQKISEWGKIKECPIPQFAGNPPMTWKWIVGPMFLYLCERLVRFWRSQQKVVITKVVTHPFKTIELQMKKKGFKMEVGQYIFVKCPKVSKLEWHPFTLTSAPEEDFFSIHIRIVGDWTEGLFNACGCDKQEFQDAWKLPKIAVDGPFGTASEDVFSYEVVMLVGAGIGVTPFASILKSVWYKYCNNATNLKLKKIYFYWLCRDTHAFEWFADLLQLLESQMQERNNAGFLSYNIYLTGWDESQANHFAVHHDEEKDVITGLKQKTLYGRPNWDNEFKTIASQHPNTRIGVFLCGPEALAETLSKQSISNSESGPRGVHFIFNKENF
Sequence of Nox2 (P13498 2-195 partner): as the sequence (P13498 2-195 partner) above
Sequence of xanthine oxidase (P80457 whole entry): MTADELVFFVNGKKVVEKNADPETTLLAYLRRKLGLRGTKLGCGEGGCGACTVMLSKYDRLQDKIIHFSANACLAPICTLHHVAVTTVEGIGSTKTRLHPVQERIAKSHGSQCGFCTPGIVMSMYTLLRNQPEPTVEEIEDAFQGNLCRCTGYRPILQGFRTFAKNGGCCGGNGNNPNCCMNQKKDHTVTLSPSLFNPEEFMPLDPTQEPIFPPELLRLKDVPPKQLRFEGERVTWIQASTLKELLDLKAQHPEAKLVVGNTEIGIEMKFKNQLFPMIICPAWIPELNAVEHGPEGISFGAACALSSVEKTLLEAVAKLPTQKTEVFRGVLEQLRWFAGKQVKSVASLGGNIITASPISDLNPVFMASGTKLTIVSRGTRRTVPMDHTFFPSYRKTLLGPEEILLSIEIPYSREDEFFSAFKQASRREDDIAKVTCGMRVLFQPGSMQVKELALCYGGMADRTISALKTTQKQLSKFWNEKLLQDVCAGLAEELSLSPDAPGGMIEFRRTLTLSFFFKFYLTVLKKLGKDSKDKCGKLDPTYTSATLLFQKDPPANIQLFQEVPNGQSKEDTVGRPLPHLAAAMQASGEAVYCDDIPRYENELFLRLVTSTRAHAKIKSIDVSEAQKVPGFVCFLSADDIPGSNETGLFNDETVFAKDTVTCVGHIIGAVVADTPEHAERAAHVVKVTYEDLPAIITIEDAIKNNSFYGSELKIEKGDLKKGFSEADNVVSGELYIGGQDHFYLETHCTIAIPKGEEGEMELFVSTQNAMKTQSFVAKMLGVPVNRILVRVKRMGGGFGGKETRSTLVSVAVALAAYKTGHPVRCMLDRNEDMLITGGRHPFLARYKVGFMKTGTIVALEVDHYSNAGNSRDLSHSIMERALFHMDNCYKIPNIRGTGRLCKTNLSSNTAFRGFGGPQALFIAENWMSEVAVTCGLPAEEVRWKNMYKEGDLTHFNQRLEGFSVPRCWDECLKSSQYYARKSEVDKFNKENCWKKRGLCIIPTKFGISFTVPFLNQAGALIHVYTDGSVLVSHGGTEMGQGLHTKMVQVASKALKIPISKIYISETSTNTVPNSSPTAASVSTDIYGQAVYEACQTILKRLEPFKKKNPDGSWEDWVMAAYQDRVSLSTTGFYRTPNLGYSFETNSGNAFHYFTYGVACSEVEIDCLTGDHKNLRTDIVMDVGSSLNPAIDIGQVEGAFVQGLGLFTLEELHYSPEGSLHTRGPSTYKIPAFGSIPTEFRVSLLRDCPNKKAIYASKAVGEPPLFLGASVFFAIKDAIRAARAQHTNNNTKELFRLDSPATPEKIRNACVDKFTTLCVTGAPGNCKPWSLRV

## COc1cc(C)c(S(=O)(=O)NCCc2ccccc2O)c(C)c1 [Example 47, N-[2-(2-hydroxyphenyl)ethyl]-4-methoxy-2,6-dimethyl-benzenesulfonamide]
[1]
  solubility kinetic at 24 h: > 100 µM
[2]
  half-life at 1 μM: 14 min
hNox4; read-out: IC50 Nox4
  IC50: 1600 nM
[3]
  half-life at 1 μM: 1 min
Xanthine oxidase
  IC50 XO: —
[4]
  fraction unbound at 4 h, 10 μM: 0.03
Nox2
  IC50: 1000 nM

## COc1cc(C)c(S(=O)(=O)NCCc2ccccc2Cl)c(C)c1 [Example 46, N-[2-(2-chlorophenyl)ethyl]-4-methoxy-2,6-dimethyl-benzenesulfonamide]
[1]
  solubility kinetic at 24 h: 16 µM (≈ 5.66 µg/mL)
[2]
  half-life at 1 μM: 2 min
hNox4; read-out: IC50 Nox4
  IC50: 300 nM
[3]
  half-life at 1 μM: 2 min
Xanthine oxidase
  IC50 XO: —
[4]
  fraction unbound at 4 h, 10 μM: 0.0026
Nox2
  IC50 Nox2: —

## Cc1cc(Cl)c(S(=O)(=O)NCCc2ccccc2O)c(C)c1O [Example 44, 6-chloro-3-hydroxy-N-[2-(2-hydroxyphenyl)ethyl]-2,4-dimethyl-benzenesulfonamide]
[1]
  solubility kinetic at 24 h: 94 µM (≈ 33.4 µg/mL)
[2]
  half-life at 1 μM: 36 min
hNox4; read-out: IC50 Nox4
  IC50: 2400 nM
[3]
  half-life at 1 μM: 7 min
Xanthine oxidase
  IC50 XO: —
[4]
  fraction unbound at 4 h, 10 μM: 0.015
Nox2
  IC50: 900 nM

## O=S(=O)(NCCc1ccccc1O)c1c(Cl)cc(Br)cc1Cl [Example 38, 4-bromo-2,6-dichloro-N-[2-(2-hydroxyphenyl)ethyl]benzenesulfonamide]
[1]
  solubility kinetic at 24 h: 77 µM (≈ 32.7 µg/mL)
[2]
  half-life at 1 μM: 9 to 11 min
hNox4; read-out: IC50 Nox4
  IC50: 300 nM
[3]
  half-life at 1 μM: 2 to 4 min
Xanthine oxidase
  IC50 XO: —
[4]
  fraction unbound at 4 h, 10 μM: 0.0062
Nox2
  IC50: 1500 nM

## Cc1ccccc1C(F)CNS(=O)(=O)c1c(Cl)cc(Br)cc1Cl (racemic) [Example 35, 4-bromo-2,6-dichloro-N-[2-fluoro-2-(2-methylphenyl)ethyl]benzene-1-sulfonamide]
[1]
  solubility kinetic at 24 h: 4.5 µM (≈ 1.99 µg/mL)
[2]
  half-life at 1 μM: 11 to 13 min
hNox4; read-out: IC50 Nox4
  IC50: 1700 nM
[3]
  half-life at 1 μM: 6 to 20 min
Xanthine oxidase
  IC50 XO: —
[4]
  fraction unbound at 4 h, 10 μM: 0.0002
Nox2
  IC50 Nox2: —

## Cc1ccccc1CCNS(=O)(=O)c1c(Cl)cc(Br)cc1Cl [Example 17, 4-bromo-2,6-dichloro-N-[2-(2-methylphenyl)ethyl]benzene-1-sulfonamide]
[1]
  solubility kinetic at 24 h: 0.16 µM (≈ 0.0677 µg/mL)
[2]
  half-life at 1 μM: 3 to 4 min
hNox4; read-out: IC50 Nox4
  IC50: 270 nM
hNox4; [5]
  IC50: 270 nM
[3]
  half-life at 1 μM: 2 to 3 min
Xanthine oxidase
  IC50 XO: —
[4]
  fraction unbound at 4 h, 10 μM: 0.0002
Nox2
  IC50 Nox2: —

## Cc1cc(C)c(S(=O)(=O)NCCc2ccccc2O)c(C)c1 [Example 37, N-[2-(2-hydroxyphenyl)ethyl]-2,4,6-trimethylbenzene-1-sulfonamide]
[1]
  solubility kinetic at 24 h: > 100 µM
[2]
  half-life at 1 μM: 6 to 10 min
hNox4; read-out: IC50 Nox4
  IC50: 800 nM
[3]
  half-life at 1 μM: 2 to 4 min
Xanthine oxidase
  IC50 XO: —
[4]
  fraction unbound at 4 h, 10 μM: 0.011
Nox2
  IC50: 900 nM

## Cc1cc(O)cc(C)c1S(=O)(=O)NCCc1ccccc1O [Example 48, 4-hydroxy-N-[2-(2-hydroxyphenyl)ethyl]-2,6-dimethyl-benzenesulfonamide]
[1]
  solubility kinetic at 24 h: 97 µM (≈ 31.2 µg/mL)
[2]
  half-life at 1 μM: 69 min
hNox4; read-out: IC50 Nox4
  IC50: 22000 nM
[3]
  half-life at 1 μM: 16 min
Xanthine oxidase
  IC50 XO: —
[4]
  fraction unbound at 4 h, 10 μM: 0.011
Nox2
  IC50: 870 nM

## O=S(=O)(NCCc1ccccc1Cl)c1c(Cl)cc(C2CC2)cc1Cl [Example 26, 2,6-dichloro-N-[2-(2-chlorophenyl)ethyl]-4-cyclopropylbenzene-1-sulfonamide]
hNox4; read-out: IC50 Nox4
  IC50: 360 nM
hNox4; [5]
  IC50: 360 nM
Xanthine oxidase
  IC50 XO: —
Nox2
  IC50 Nox2: —

## Cc1ccccc1CCNS(=O)(=O)c1c(C)cccc1Cl [Example 11, 2-chloro-6-methyl-N-[2-(2-methylphenyl)ethyl]benzene-1-sulfonamide]
hNox4; read-out: IC50 Nox4
  IC50: 2400 nM
hNox4; [5]
  IC50: 2400 nM
Xanthine oxidase
  IC50 XO: —
Nox2
  IC50 Nox2: —
